From patent publication US20140335251A1, “ANTIFUNGAL FLAVORING COMPOSITIONS” (FIRMENICH SA, priority 2011, published 2014) come the findings set out here.

Holding throughout (format): cell-based
The subject of one assay is each of the tested fungi. The assay can be described thus: Growth inhibition, summary over all tested strains. The note with it: even at 75 ppm; strains of Tables 3-4 or 9-10. The method, then:
(§1) A 105 g/L solution of sucrose in water at pH 5±0.2 was prepared. The sucrose solution was autoclaved at 121° C. for 15 minutes and the pH was re-checked to ensure it remained within the range.
(§2) Test samples were then prepared in microtiter plates. An amount of 100 μL of sucrose solution prepared above was mixed with an inoculum of 20 μL of one fungal strain, so as to achieve a microbial level comprised between 10^2 and 10^3 cfu/mL.
(§3) Composition A was then added to the microtiter plate. Dilutions were prepared in the microtiter plate for each mixture of sucrose solution and inoculum to afford final concentrations of 75 ppm and 125 ppm of Composition A. One well for each mixture of sucrose solution and inoculum was kept free of Composition A, to serve as a control.
(§4) The microtiter plates were then stored in a standard 25° C. incubator under aerobic conditions.
(§5) The optical density (OD) of each sample was measured after 21 days of incubation using a Bio-Tek Synergy™ HT Multi-Mode Microplate Reader (from Labtech International, UK). The wavelength was set to 380 nm for yeast strains and to 500 nm for mould strains.
(§6) All tests were done in triplicate to ensure statistical relevance of the results obtained.
2-Methylhexanoic acid, geranic acid and sorbic acid were separately tested for their antifungal properties using the method described in Example 1 for evaluation of Composition A, except that dilutions were prepared in the microtiter plate for each mixture of sucrose solution and inoculum to afford final concentrations of 25 ppm, 50 ppm and 75 ppm of the tested ingredient.
Composition B was then added to the microtiter plate.

Assay [1] deals with Pichia membranaefaciens (DSM 70369). The assay can be described thus: Growth inhibition in sucrose solution pH 5, OD after 21 days. The note with it: for Antifungal activity: pH 5, 21 days at 25° C.; for concentration at which active as single ingredient: sucrose solution pH 5, 21 days, tested at 25, 50, 75 ppm.
Excerpt: (§7) The term “effective” when used to describe the capacity of a composition to inhibit growth of a yeast or mould strain is defined as the ability of such composition to inhibit growth of the strain in a growth medium consisting of a 105 g/L sucrose solution with an initial inoculum of 10^2-10^3 cfu/mL of such yeast or mould strain, so that the average optical density of the growth medium, as measured at 380 nm for yeast strains and at 500 nm for mould strains, is maintained below 0.2 after 21 days of culture at 25° C. under aerobic conditions. The growth medium of which the optical density is measured consists of the growth medium as it is at the end of the 21 days growth period.
(§8) For the purposes of the present invention, growth inhibition activity of a given compound against one of the above mentioned strains is measured as follows:
(§9) A 105 g/L solution of sucrose in water is prepared. Preferably, the sucrose solution is at pH 3±0.2 or at pH 5±0.2, in which case the sucrose solution is more preferably autoclaved at 121° C. for 15 minutes and the pH is re-checked to ensure it remains within the required range.
(§10) Test samples are prepared in a microtiter plate comprising 100 μL of one of the sucrose solutions prepared above, together with an initial inoculum of the fungal strain of which growth is intended to be inhibited, so as to achieve a microbial level comprised between 10^2 and 10^3 cfu/mL.
(§11) The composition of which the antifungal activity is intended to be evaluated is then added to the microtiter plate. Dilutions of the tested composition in each test sample are prepared to afford the desired final concentration. The microtiter plates are then stored in a standard 25° C. incubator under aerobic conditions.
(§12) The optical density (OD) of each sample is measured just after addition of the composition (control) and after 21 days of incubation. The OD is measured at 380 nm for yeast strains and at 500 nm for mould strains.
(§13) All tests are done in triplicate to ensure statistical relevance of the results obtained.
(§14) Growth inhibition of a particular strain by an ingredient at a particular concentration is given if the OD measured after 21 days of culture in these conditions is below 0.2.
as §1, §2, §3, §4, §5, §6
(§15) 2-Methylhexanoic acid, geranic acid and sorbic acid were separately tested for their antifungal properties using the method described in Example 1 for evaluation of Composition A, except that dilutions were prepared in the microtiter plate for each mixture of sucrose solution and inoculum to afford final concentrations of 25 ppm, 50 ppm and 75 ppm of the tested ingredient. […]

Assay [2] deals with Pichia anomala (DSM 70783). The description is as above. The note with it: for Antifungal activity: pH 5, 21 days at 25° C.; for concentration at which active as single ingredient: sucrose solution pH 5, 21 days, tested at 25, 50, 75 ppm.
Excerpt: as §7, §8, §9, §10, §11, §12, §13, §14, §1, §2, §3, §4, §5, §6, §15

Assay [3] relates to Zygosaccharomyces bailii (DSM 70492). Described as above. The note with it: for Antifungal activity: pH 5, 21 days at 25° C., OD 380 nm. From the text:
The term “effective” when used to describe the capacity of a composition to inhibit growth of a yeast or mould strain is defined as the ability of such composition to inhibit growth of the strain in a growth medium consisting of a 105 g/L sucrose solution with an initial inoculum of 10^2-10^3 cfu/mL of such yeast or mould strain, so that the average optical density of the growth medium, as measured at 380 nm for yeast strains and at 500 nm for mould strains, is maintained below 0.2 after 21 days of culture at 25° C. under aerobic conditions. The growth medium of which the optical density is measured consists of the growth medium as it is at the end of the 21 days growth period. It therefore consists of the growth medium (sucrose solution at 105 g/L), together with the organisms which were able to grow during the 21 days culture period and the composition of the invention. For the purposes of the present invention, growth inhibition activity of a given compound against one of the above mentioned strains is measured as follows: A 105 g/L solution of sucrose in water is prepared. Preferably, the sucrose solution is at pH 3±0.2 or at pH 5±0.2, in which case the sucrose solution is more preferably autoclaved at 121° C. for 15 minutes and the pH is re-checked to ensure it remains within the required range. Test samples are prepared in a microtiter plate comprising 100 μL of one of the sucrose solutions prepared above, together with an initial inoculum of the fungal strain of which growth is intended to be inhibited, so as to achieve a microbial level comprised between 10^2 and 10^3 cfu/mL. The composition of which the antifungal activity is intended to be evaluated is then added to the microtiter plate. […] The microtiter plates are then stored in a standard 25° C. incubator under aerobic conditions. The optical density (OD) of each sample is measured just after addition of the composition (control) and after 21 days of incubation. The OD is measured at 380 nm for yeast strains and at 500 nm for mould strains. All tests are done in triplicate to ensure statistical relevance of the results obtained. Growth inhibition of a particular strain by an ingredient at a particular concentration is given if the OD measured after 21 days of culture in these conditions is below 0.2. A 105 g/L solution of sucrose in water at pH 5±0.2 was prepared. The sucrose solution was autoclaved at 121° C. for 15 minutes and the pH was re-checked to ensure it remained within the range. Test samples were then prepared in microtiter plates. […] Composition A was then added to the microtiter plate. […] One well for each mixture of sucrose solution and inoculum was kept free of Composition A, to serve as a control. The microtiter plates were then stored in a standard 25° C. incubator under aerobic conditions. The optical density (OD) of each sample was measured after 21 days of incubation using a Bio-Tek Synergy™ HT Multi-Mode Microplate Reader (from Labtech International, UK). The wavelength was set to 380 nm for yeast strains and to 500 nm for mould strains. All tests were done in triplicate to ensure statistical relevance of the results obtained.

[4] abbreviates: 75 ppm, OD 380 nm (Examples 3-4).

As for `CCC(=O)O` [Propanoic acid], the “antifungal activity as single ingredient against tested strains” value (“antifungal activity as single ingredient” below) with each of the tested fungi is “inactive”. Besides, the Antifungal activity result in assay [1] (25 ppm, OD 380 nm (Example 4)) was “I (Letter I (for Inactive) is used when the measured OD was of at least 0.2)”; in assay [1] (50 ppm, OD 380 nm (Example 4)) it was “I (Letter I (for Inactive) is used when the measured OD was of at least 0.2)”; in assay [1] (setting [4]), “I (Letter I (for Inactive) is used when the measured OD was of at least 0.2)”; in assay [2] (25 ppm, OD 380 nm (Example 4)) it was “I (Letter I (for Inactive) is used when the measured OD was of at least 0.2)”; in assay [2] (50 ppm, OD 380 nm (Example 4)), “I (Letter I (for Inactive) is used when the measured OD was of at least 0.2)”; in assay [2] (setting [4]) it was “I (Letter I (for Inactive) is used when the measured OD was of at least 0.2)”.

Consider `CC(C)=CCC/C(C)=C/C(=O)O` [Geranic acid], for which the “antifungal activity as single ingredient” value in the assay on each of the tested fungi was “inactive”. For the same compound, the Antifungal activity entry in assay [3] (25 ppm) is reported as “I (Letter I (for Inactive) is used when the measured OD was of at least 0.2)”; in assay [3] (50 ppm) it was “I (Letter I (for Inactive) is used when the measured OD was of at least 0.2)”; in assay [3] (75 ppm), “I (Letter I (for Inactive) is used when the measured OD was of at least 0.2)”; in assay [1] (25 ppm, OD 380 nm) it was “I (Letter I (for Inactive) is used when the measured OD was of at least 0.2)”; in assay [1] (50 ppm, OD 380 nm), “I (Letter I (for Inactive) is used when the measured OD was of at least 0.2)”; in assay [1] (75 ppm, OD 380 nm), “I (Letter I (for Inactive) is used when the measured OD was of at least 0.2)”. Further, the Antifungal activity entry is given as “I (Letter I (for Inactive) is used when the measured OD was of at least 0.2)” in assay [2] (25 ppm, OD 380 nm); “I (Letter I (for Inactive) is used when the measured OD was of at least 0.2)” in assay [2] (50 ppm, OD 380 nm); “I (Letter I (for Inactive) is used when the measured OD was of at least 0.2)” in assay [2] (75 ppm, OD 380 nm).

Regarding `C/C=C/C=C/C(=O)O` [Sorbic acid], the Antifungal activity entry in assay [3] (25 ppm) is on record as “I (Letter I (for Inactive) is used when the measured OD was of at least 0.2)”; in assay [3] (50 ppm), “I (Letter I (for Inactive) is used when the measured OD was of at least 0.2)”; in assay [3] (75 ppm), “A (Letter A (for Active) is indicated when the measured OD was below 0.2)”; in assay [1] (25 ppm, OD 380 nm), “I (Letter I (for Inactive) is used when the measured OD was of at least 0.2)”; in assay [1] (50 ppm, OD 380 nm), “I (Letter I (for Inactive) is used when the measured OD was of at least 0.2)”; in assay [1] (75 ppm, OD 380 nm), “A (Letter A (for Active) is indicated when the measured OD was below 0.2)”. For the same compound, the Antifungal activity result is listed as “I (Letter I (for Inactive) is used when the measured OD was of at least 0.2)” in assay [2] (25 ppm, OD 380 nm); “A (Letter A (for Active) is indicated when the measured OD was below 0.2)” in assay [2] (50 ppm, OD 380 nm); “A (Letter A (for Active) is indicated when the measured OD was below 0.2)” in assay [2] (75 ppm, OD 380 nm). Besides, the “concentration at which active as single ingredient” value in assay [3] (sucrose solution pH 5, 21 days, tested at 25, 50, 75 ppm) amounted to 75 ppm; in assay [1], 75 ppm; in assay [2], 50 ppm.

On to `O=C(O)c1ccccc1` [benzoic acid], for which the Antifungal activity result in assay [1] (25 ppm, OD 380 nm (Example 4)) was “I (Letter I (for Inactive) is used when the measured OD was of at least 0.2)”; in assay [1] (50 ppm, OD 380 nm (Example 4)), “I (Letter I (for Inactive) is used when the measured OD was of at least 0.2)”; in assay [1] (setting [4]), “A (Letter A (for Active) is indicated when the measured OD was below 0.2)”; in assay [2] (25 ppm, OD 380 nm (Example 4)) it was “I (Letter I (for Inactive) is used when the measured OD was of at least 0.2)”; in assay [2] (50 ppm, OD 380 nm (Example 4)), “A (Letter A (for Active) is indicated when the measured OD was below 0.2)”; in assay [2] (setting [4]), “A (Letter A (for Active) is indicated when the measured OD was below 0.2)”. The “concentration at which active as single ingredient” value is reported as 75 ppm in assay [1] and 50 ppm in assay [2].

Turning to `CCCCC(C)C(=O)O` (centres unmarked) [2-Methylhexanoic acid], the “antifungal activity as single ingredient” value with each of the tested fungi was “inactive”. In addition, the Antifungal activity result in assay [3] (25 ppm) is “I (Letter I (for Inactive) is used when the measured OD was of at least 0.2)”; in assay [3] (50 ppm), “I (Letter I (for Inactive) is used when the measured OD was of at least 0.2)”; in assay [3] (75 ppm), “I (Letter I (for Inactive) is used when the measured OD was of at least 0.2)”; in assay [1] (25 ppm, OD 380 nm) it was “I (Letter I (for Inactive) is used when the measured OD was of at least 0.2)”; in assay [1] (50 ppm, OD 380 nm), “I (Letter I (for Inactive) is used when the measured OD was of at least 0.2)”; in assay [1] (75 ppm, OD 380 nm), “I (Letter I (for Inactive) is used when the measured OD was of at least 0.2)”. In addition, the Antifungal activity result in assay [2] (25 ppm, OD 380 nm) is “I (Letter I (for Inactive) is used when the measured OD was of at least 0.2)”; in assay [2] (50 ppm, OD 380 nm), “I (Letter I (for Inactive) is used when the measured OD was of at least 0.2)”; in assay [2] (75 ppm, OD 380 nm) it was “I (Letter I (for Inactive) is used when the measured OD was of at least 0.2)”.
